Measurements taken from ChEMBL document CHEMBL1140850, “Structure-activity relationships of lipopolysaccharide sequestration in guanylhydrazone-bearing lipopolyamines” (Bioorg Med Chem, 2009).
Active and inactive are the calls of the source. The calls are words filed in the database; no cut-off is given here.

How the values were obtained:
Mus musculus [1] = experiment: Toxicity in Escherichia coli 0111:B4 LPS-induced lethality in ip dosed CF1 mouse after 24 hrs; assay type: organism-based; conditions: in vivo
Blood = experiment: Inhibition of Escherichia coli 0111:B4 LPS-induced proinflammatory cytokine production in human whole blood after 4 hrs; assay type: functional, tissue-based
J774.A1 = experiment: Inhibition of LPS-induced NO production in mouse J774A1 cells by Griess assay; assay type: functional, cell-based
Mus musculus [2] = experiment: Toxicity in Escherichia coli 0111:B4 LPS-induced lethality in CF1 mouse at 200 mg/kg, ip after 24 hrs; assay type: organism-based; set-up: dose 200 mg/kg, route intraperitoneal; conditions: in vivo
HEK293 = experiment: Inhibition of LPS-induced NF-kappaB nuclear transactivation in HEK293 cells coexpressed with TLR4 assessed as alkaline phosphatase activity by spectrophotometry; assay type: cell-based; conditions: Homo sapiens

Row | Structure (SMILES) | Activity (Mus musculus [1]) | LD100 (Mus musculus [1]) [ng] | Activity (Blood) | Activity (J774.A1) | Activity (Mus musculus [2]) | Activity (HEK293)
1 | CCCCCCCCCCCCCCCCNC(=N)N/N=C/CCNCCCNCCCCNCCCN.O=C(O)C(F)(F)F | Dose-dependent effect | 100 | Dose-dependent effect | Active | Non-toxic | 
2 | CCCCCCCCCCCCCCCCNCCCNCCCCNCCCNCC/C=N/NC(=N)N |  |  |  | Active |  | Active
